Test results from US12144792B2, “Therapeutic agents for neurodegenerative diseases” (priority 2016, dated 2024).

Legend:
[1] = tested on: patient with downbeat nystagmus; experiment: Gait analysis; format: in vivo, human; settings: Ex. 12 Patient 2
Text: Medication was then suspended. About one month after stopping acetyl-DL-leucine treatment, the patient's symptomatology worsened.

[2] = tested on: patients with multisystemic atrophy cerebellar type (MSA-C); experiment: Case studies, clinical examination; format: in vivo, human
patients with ataxia = patients with ataxia (Becker-Bense et al. 2015); cited from earlier work
Npc1^−/− mice = experiment: Weight data; format: in vivo, mouse; settings: 0.1 g/kg from weaning, vs untreated group
Text: Separate groups of Npc1^−/− and Npc1^+/+ mice were left untreated, as controls. Animals were weighed twice a week. Weights were averaged (mean) across all mice in each group and compared.

[3] = tested on: fibroblast cell line from an NPC patient; experiment: Lysosomal volume via LysoTracker; format: cell-based, human; settings: fibroblasts from NPC patient of mild clinical severity; 1 mM
Method: A fibroblast cell line from an NPC patient was treated for 3 days with N-acetyl-DL-leucine (1 mM) and relative lysosomal volume was quantified via LysoTracker, a fluorescent dye that accumulates in acidic organelles. Increased LysoTracker fluorescence is indicative of an increase in lysosomal size and/or number, and is a hallmark of NPC cells.

[4] = tested on: 12 patients with Niemann-Pick Type C (NPC); settings: one-month study, 12 NPC patients (Bremova et al. 2015); cited from earlier work
[5] = tested on: patient with frontotemporal dementia with parkinsonism; experiment: Case study, clinical examination; format: in vivo, human
Text: After approximately one month of acetyl-leucine treatment, medication was stopped and the patient was re-examined 13 days later.

[6] = tested on: patients with multiple system atrophy Parkinson type (MSA-P); experiment: Case studies, clinical examination; format: in vivo, human
Text: Medication was stopped. […] The patient evaluated after one month on acetyl-DL-leucine. […] Episodes of mental confusion completely disappeared. The patient's cognitive structure seemed much clearer and straighter. […] The patient's spouse supported continuing the medication.

[7] = tested on: Mucopolysaccharidosis Type VII (MPS VII) patient fibroblasts; experiment: Lysosomal volume via LysoTracker; format: cell-based, human; settings: 1 mM, 6 days, vs untreated
Npc1^−/− mouse = experiment: Lifespan; format: in vivo; settings: 0.1 g/kg from 3 weeks of age
Text: Separate groups of Npc1^−/− and Npc1^+/+ mice were left untreated, as controls.

[8] = tested on: microtubule-associated protein 1A/1B-light chain 3-phosphatidylethanolamine conjugate (LC3-II); experiment: LC3-II levels relative to tubulin loading control; format: in vivo, mouse; settings: NPC1−/− mice, 0.1 g/kg body weight daily from 3 weeks of age; sacrificed at 8 weeks
Method: The Niemann-Pick Disease Type C (NPC) mouse model shares a number of pathological features with Alzheimer's disease (AD) as described herein. […] Mice were sacrificed at 8 weeks of age. Levels of amyloid precursor protein C-terminal fragments (APP-CTFs) were evaluated relative to total amyloid precursor protein (APP) levels in the cerebellum for wild type, untreated wild type NPC1^−/− mice, and AL-treated wild type NPC1^−/− mice. Levels of microtubule-associated protein 1A/1B-light chain 3-phosphatidylethanolamine conjugate (LC3-II) were also evaluated relative to levels of tubulin loading control for wild type, untreated wild type NPC1^−/− mice, and AL-treated wild type NPC1^−/− mice.

[9] = tested on: Niemann-Pick A (NPA) patient fibroblasts; experiment: Lysosomal volume via LysoTracker; format: cell-based, human; settings: 1 mM, 6 days, vs untreated
[10] = tested on: patients with Tay-Sachs disease; experiment: Case studies, patient evaluation (SARA, SCAFI, MoCA, mRDS, EQ-5D-5L); format: in vivo, human
Text: For example, to evaluate overall neurological status, mDRS, a four-domain scale (ambulation, manipulation, language and swallowing), may be applied. Cerebellar function may be evaluated using SARA, an eight-item clinical rating scale (gait, stance, sitting, speech, fine motor function and taxis; range 0-40, where 0 is the best neurological status and 40 the worst), and SCAFI, comprising the 8-m-Walking-Time (8MW; performed by having patients walking twice as quickly as possible from one line to another excluding turning), 9-Hole-Peg-Test (9HPT) and the number of “PATA” repetitions over 10 s. Subjective impairment and quality of life may be evaluated using the EQ-5D-5L questionnaire and VAS. To assess ocular motor function, 3-dimensional videooculography (EyeSeeCam) may be used to measure the peak velocity of saccades, gain of smooth pursuit, peak slow phase velocity of gaze-evoked nystagmus (gaze-holding function), peak slow phase velocity of optokinetic nystagmus, and gain of horizontal vestibulo-ocular reflex. To evaluate the cognitive state, WAIS-R or WISC-W, and MoCA, assessing different cognitive domains, including attention and concentration, executive functions, memory, language, visuoconstructional skills, conceptual thinking, calculations, and orientation with a maximum of 30 points and a cut-off score of 26, may be used. The skilled person will know how to perform these and other such tests.
Before treatment was commenced, examination of the patient indicated a Scale for Assessment and Rating of Ataxia (SARA) score of 15.5/40. In addition, results from the patient's Spinocerebellar Ataxia Functional Index (SCAFI) analysis were: • Mean 8-meters Walking Test (8MW): 21.6 s • MW 9-Hole Pegboard Test Dominant (9HPTD) (right): 48.3 s • MW 9-Hole Pegboard Test Non-Dominant (9HPTND): 44.9 s • MW PATA Word Test: 20 • Montreal Cognitive Assessment (MoCA): 18/30
The day following this examination, the patient was started on therapy with acetyl-leucine, at a dose of 3 g per day for the first week, followed by a dose of 5 g per day for the second week onwards.
The day of the examination, the patient was started on therapy with acetyl-leucine at a dose of 3 g per day for the first week, followed by a dose of 5 g per day for the second week onwards.
The patient was started on therapy with acetyl-leucine at a dose of 1.5 g per day for the first week, followed by a dose of 3 g per day for the second week onwards.

With `CC(=O)NC(CC(C)C)C(=O)O` (racemic) [acetyl-DL-leucine] the self-chosen velocity ([1]; about one month after stopping treatment, decrease from 85) was 72 cm/s, the self-chosen velocity ([1]; on treatment, increase from 56) was 85 cm/s and the speech ([2]; Ex. 8 Patient 1, MSA-C, 5 g per day, after one week) was “significant improvement in speech”. For the same molecule, the gait ([2]; Ex. 8 Patient 2, MSA-C, 3 then up to 5 gram per day, after 3 weeks) was “significant improvement of gait”, the falls ([2]; Ex. 8 Patient 2, MSA-C, after 3 weeks, before approximately 10 falls a month) was “the falls completely stopped” and the “symptoms after stopping medication” value ([2]; Ex. 8 Patient 2, MSA-C, one week after stopping) was “deterioration of gait and dizziness”. The “brain metabolism (PET)” value (patients with ataxia) was “increased metabolism in the midbrain and lower brainstem in responders”, the “delay of weight loss symptoms” value (Npc1^−/− mice) was “delayed these weight loss symptoms by two weeks” and the “LysoTracker fluorescence (lysosomal volume)” value (“LysoTracker fluorescence” below) [3] was “significant decrease in LysoTracker fluorescence”. For the same molecule, the ataxia symptoms [4] was “symptomatic improvement of ataxia”, the gait ([5]; Ex. 9, frontotemporal dementia with parkinsonism, 3 then 5 gram per day, approximately one month) was “significant improvement of gait” and the speech ([5]; Ex. 9, under therapy) was “improvement of speech”. The falls ([5]; Ex. 9, under therapy, before 2-3 falls per month) was “the patient's falls stopped”, the symptoms ([6]; Ex. 13 Patient 1, MSA-P, 3 g/day first week, 5 g/day thereafter, after 3 weeks) was “no significant improvement of gait, reduction of falls or improved hypokinetic rigid-syndrome” and the symptoms ([6]; Ex. 13 Patient 2, MSA-P, 3 then 5 g per day, after one month) was “subjective improvement of dizziness”. The cognitive function ([6]; Ex. 13 Patient 3, MSA-P, 3 then 5 g per day, after one month, reported by the patient's spouse) was “significant improvement of cognitive function”, the gait function ([6]; Ex. 13 Patient 3, MSA-P, after one month) was “no improvement of gait function” and the “LysoTracker fluorescence” value [7] was “trend in reducing LysoTracker fluorescence”. The lifespan (Npc1^−/− mouse) was “small but statistically significant increase in lifespan”, the “LC3-II levels relative to tubulin” value [8] was “lowering of LC3-II” and the “LysoTracker fluorescence” value [9] was “statistically significant reduction in LysoTracker fluorescence”. The symptoms on re-examination ([10]; Ex. 5 Patient 1, Tay-Sachs, 3 then 5 g per day, after four months) was “stable condition with slightly improved cognitive function but had deterioration of stance, gait and fine motor function”, the symptoms on re-examination ([10]; Ex. 5 Patient 1, Tay-Sachs, 3 then 5 g per day, after one month) was “improved fine motor skills and reduced hand tremor” and the symptoms on re-examination ([10]; Ex. 5 Patient 2, Tay-Sachs, 3 then 5 g per day, after one month) was “increased enunciation, improved postural stability, and enhanced cognitive function”. For the same molecule, the symptoms on re-examination ([10]; Ex. 5 Patient 3, Tay-Sachs, 1.5 then 3 g per day, after one month) was “improved postural stability, gait and stance, and could speak single words”.
